Test results from PubChem BioAssay (NCI).
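Protocol summary: plate cells (96-well), add compound at 5 concentrations, incubate 48 h, interpolate endpoints linearly. TGI: concentration producing complete growth inhibition.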

Experiments:
Test in all cases: DTP human tumour cell line panel, 48 h
MCF7 breast = system: MCF7 breast
HS 578T breast = system: HS 578T breast
SK-MEL-5 melanoma = system: SK-MEL-5 melanoma
UACC-62 melanoma = system: UACC-62 melanoma
BT-549 breast = system: BT-549 breast
SF-539 CNS = system: SF-539 CNS
UACC-257 melanoma = system: UACC-257 melanoma
DU-145 prostate = system: DU-145 prostate
786-0 renal = system: 786-0 renal
MOLT-4 leukemia = system: MOLT-4 leukemia
MDA-MB-231 breast = system: MDA-MB-231 breast
UO-31 renal = system: UO-31 renal
A498 renal = system: A498 renal
PC-3 prostate = system: PC-3 prostate
TK-10 renal = system: TK-10 renal
U251 CNS = system: U251 CNS
MDA-N = system: MDA-N
OVCAR-5 ovarian = system: OVCAR-5 ovarian
MALME-3M melanoma = system: MALME-3M melanoma
RPMI-8226 leukemia = system: RPMI-8226 leukemia
T-47D breast = system: T-47D breast
SK-MEL-2 melanoma = system: SK-MEL-2 melanoma
SF-268 CNS = system: SF-268 CNS
NCI/ADR-RES ovarian = system: NCI/ADR-RES ovarian
OVCAR-8 ovarian = system: OVCAR-8 ovarian
HL-60(TB) leukemia = system: HL-60(TB) leukemia
RXF 393 renal = system: RXF 393 renal
OVCAR-4 ovarian = system: OVCAR-4 ovarian
EKVX NSCLC = system: EKVX NSCLC
SNB-19 CNS = system: SNB-19 CNS
SW-620 colon = system: SW-620 colon
MDA-MB-435 = system: MDA-MB-435
A549 NSCLC = system: A549 NSCLC
HCT-116 colon = system: HCT-116 colon
LOX IMVI melanoma = system: LOX IMVI melanoma
M14 melanoma = system: M14 melanoma
CAKI-1 renal = system: CAKI-1 renal
SR leukemia = system: SR leukemia
HOP-92 NSCLC = system: HOP-92 NSCLC
NCI-H23 lung = system: NCI-H23 lung
NCI-H522 lung = system: NCI-H522 lung
K-562 leukemia = system: K-562 leukemia
NCI-H460 lung = system: NCI-H460 lung
HCC-2998 colon = system: HCC-2998 colon
HT29 colon = system: HT29 colon
KM12 colon = system: KM12 colon
IGROV1 ovarian = system: IGROV1 ovarian
SN12C renal = system: SN12C renal
HCT-15 colon = system: HCT-15 colon
ACHN renal = system: ACHN renal
NCI-H226 lung = system: NCI-H226 lung
COLO 205 colon = system: COLO 205 colon
CCRF-CEM leukemia = system: CCRF-CEM leukemia
SNB-75 CNS = system: SNB-75 CNS
SK-MEL-28 melanoma = system: SK-MEL-28 melanoma
SK-OV-3 ovarian = system: SK-OV-3 ovarian
HOP-62 NSCLC = system: HOP-62 NSCLC
OVCAR-3 ovarian = system: OVCAR-3 ovarian
SF-295 CNS = system: SF-295 CNS

COC(=O)c1scc(N)c1-n1ccc(=O)[nH]c1=O
TGI (MCF7 breast): > 100 µM | TGI (HS 578T breast): > 100 µM | TGI (SK-MEL-5 melanoma): > 100 µM | TGI (UACC-62 melanoma): > 100 µM | TGI (BT-549 breast): > 100 µM | TGI (SF-539 CNS): > 100 µM | TGI (UACC-257 melanoma): > 100 µM | TGI (DU-145 prostate): > 100 µM | TGI (786-0 renal): > 100 µM | TGI (MOLT-4 leukemia): > 100 µM | TGI (MDA-MB-231 breast): > 100 µM | TGI (UO-31 renal): > 100 µM | TGI (A498 renal): > 100 µM | TGI (PC-3 prostate): > 100 µM | TGI (TK-10 renal): > 100 µM | TGI (U251 CNS): > 100 µM | TGI (MDA-N): > 100 µM | TGI (OVCAR-5 ovarian): > 100 µM | TGI (MALME-3M melanoma): > 100 µM | TGI (RPMI-8226 leukemia): > 100 µM | TGI (T-47D breast): > 100 µM | TGI (SK-MEL-2 melanoma): > 100 µM | TGI (SF-268 CNS): > 100 µM | TGI (NCI/ADR-RES ovarian): > 100 µM | TGI (OVCAR-8 ovarian): > 100 µM | TGI (HL-60(TB) leukemia): > 100 µM | TGI (RXF 393 renal): > 100 µM | TGI (OVCAR-4 ovarian): > 100 µM | TGI (EKVX NSCLC): > 100 µM | TGI (SNB-19 CNS): > 100 µM | TGI (SW-620 colon): > 100 µM | TGI (MDA-MB-435): > 100 µM | TGI (A549 NSCLC): > 100 µM | TGI (HCT-116 colon): > 100 µM | TGI (LOX IMVI melanoma): > 100 µM | TGI (M14 melanoma): > 100 µM | TGI (CAKI-1 renal): > 100 µM | TGI (SR leukemia): > 100 µM | TGI (HOP-92 NSCLC): > 100 µM | TGI (NCI-H23 lung): > 100 µM | TGI (NCI-H522 lung): > 100 µM | TGI (K-562 leukemia): > 100 µM | TGI (NCI-H460 lung): > 100 µM | TGI (HCC-2998 colon): > 100 µM | TGI (HT29 colon): > 100 µM | TGI (KM12 colon): > 100 µM | TGI (IGROV1 ovarian): > 100 µM | TGI (SN12C renal): > 100 µM | TGI (HCT-15 colon): > 100 µM | TGI (ACHN renal): > 100 µM | TGI (NCI-H226 lung): > 100 µM | TGI (COLO 205 colon): > 100 µM | TGI (CCRF-CEM leukemia): > 100 µM | TGI (SNB-75 CNS): > 100 µM | TGI (SK-MEL-28 melanoma): > 100 µM

CCCCCC(/C=N/N)C(O)(C(F)(F)F)C(F)(F)F (configuration not stated)
TGI (MCF7 breast): > 10 µM | TGI (HS 578T breast): 7.12 µM | TGI (SK-MEL-5 melanoma): 3.92 µM | TGI (UACC-62 melanoma): > 10 µM | TGI (BT-549 breast): 9.27 µM | TGI (SF-539 CNS): > 10 µM | TGI (UACC-257 melanoma): > 10 µM | TGI (DU-145 prostate): 6.09 µM | TGI (786-0 renal): > 10 µM | TGI (MOLT-4 leukemia): > 10 µM | TGI (MDA-MB-231 breast): > 10 µM | TGI (A498 renal): 7.95 µM | TGI (PC-3 prostate): 6.82 µM | TGI (TK-10 renal): > 10 µM | TGI (U251 CNS): > 10 µM | TGI (MDA-N): > 10 µM | TGI (OVCAR-5 ovarian): > 10 µM | TGI (MALME-3M melanoma): 6.69 µM | TGI (RPMI-8226 leukemia): > 10 µM | TGI (T-47D breast): > 10 µM | TGI (SK-OV-3 ovarian): > 10 µM | TGI (SK-MEL-2 melanoma): > 10 µM | TGI (SF-268 CNS): 5.92 µM | TGI (NCI/ADR-RES ovarian): > 10 µM | TGI (OVCAR-8 ovarian): > 10 µM | TGI (HL-60(TB) leukemia): > 10 µM | TGI (RXF 393 renal): > 10 µM | TGI (OVCAR-4 ovarian): > 10 µM | TGI (EKVX NSCLC): 7.3 µM | TGI (SNB-19 CNS): > 10 µM | TGI (SW-620 colon): > 10 µM | TGI (MDA-MB-435): > 10 µM | TGI (A549 NSCLC): > 10 µM | TGI (HCT-116 colon): 9.02 µM | TGI (LOX IMVI melanoma): 9.49 µM | TGI (M14 melanoma): > 10 µM | TGI (CAKI-1 renal): 6.02 µM | TGI (SR leukemia): > 10 µM | TGI (HOP-92 NSCLC): 6.36 µM | TGI (NCI-H23 lung): 9.49 µM | TGI (NCI-H522 lung): > 10 µM | TGI (NCI-H460 lung): 8.03 µM | TGI (HCC-2998 colon): > 10 µM | TGI (HOP-62 NSCLC): > 10 µM | TGI (HT29 colon): > 10 µM | TGI (KM12 colon): > 10 µM | TGI (IGROV1 ovarian): > 10 µM | TGI (OVCAR-3 ovarian): > 10 µM | TGI (SN12C renal): > 10 µM | TGI (HCT-15 colon): 9.54 µM | TGI (ACHN renal): > 10 µM | TGI (NCI-H226 lung): 8.63 µM | TGI (COLO 205 colon): 3.4 µM | TGI (CCRF-CEM leukemia): > 10 µM | TGI (SF-295 CNS): 8.6 µM | TGI (SNB-75 CNS): 9.63 µM | TGI (SK-MEL-28 melanoma): 7.43 µM
